Key:
[1] = system: LTB4-induced osteoclast formation; assay: LTB4-induced osteoclast formation in rabbit osteoclast cultures, co-treatment and pre-treatment (Example 6); assay type: cell-based
Procedure: (§1) Rabbit osteoclasts were isolated as described by Victoria Tai's report (Doctoral Dissertation, 1997, Graduate Department of Pharmacology, University of Toronto) and Rraser P. Coxon et al. (Methods in Molecular Medicine, vol 80). Neonatal rabbits (New Zealand White) were sacrificed by ether-inhaling method under a hood. The removed long bones were dissected free of attached soft tissues and placed into ice-cold PBS. The long bones were cut longitudinally and mechanically curetted in 10 ml medium 199 with antibiotics (10 ug/ml penicillin G and 50 ug/ml gentamycin) in a glass Petri dish. Each bone was curetted with a scalpel blade and was finely minced. The fragments were then vigorously agitated by pipetting up and down using a pasteur pipette and vortex-mixed for 30 seconds. The fragments were allowed to settle and the cell suspension was then transferred to a 50 ml tube and the previous step repeated three times to a total volume of 40 ml. The bone fragments were allowed to settle (>1 min). The cell suspension was then transferred to a new 50 ml tube, passed through a 40 um cell strainer and centrifuged at 200 g for 8 minutes. The supernatant was removed and the pellet was immediately resuspended in α-MEM with 2% FBS (bicarbonate buffered medium).
(§2) 40 uL droplets of osteoclast-containing suspensions were plated onto 60 mm tissue culture plastic dishes or on dentine slices in 96-well microtiter plates in 2% medium. The cells were allowed ninety minutes for attachment before the addition of 2 mL α-MEM with 2% FBS. After 24 hr culture, cells were washed to remove non-adherent cells and replaced with fresh medium as describes below.
After 24 hr in culture, the medium was removed and replaced with fresh medium containing both LTB4 receptor antagonist (1000 nM) and LTB4 (100 nM) or both DW1350 (1000 nM) and LTB4 (100 nM). The cultures were continued for an additional 48 hrs.
After 6 hrs in culture, the medium was removed and cells were pretreated with LTB4 receptor antagonists such as LY292728 (Journal of Medical Chemistry, 1995, vol. 38, No. 10, p 4411-4432), SB209247 (Journal of Medical Chemistry, 1996, vol. 39, No. 19, p 3837-3841), LY293111(Journal of Medical Chemistry, 1995, vol. 38, No. 10, p 4411-4432) and LY223982 (Journal of Medical Chemistry, 1993, vol. 36, p 3333-3340) or DW1350-containing medium and culture continued for 18 hrs. The medium was replaced with medium containing both LTB4 receptor antagonist and LTB4 or DW1350 and LTB4. The cultures were continued for an additional 48 hrs.
(§3) All cells were cultured at 37° C. in a humidified atmosphere of 95% air and 5% CO2 in bicarbonate buffered medium at pH 7.4.
(§4) Differentiated osteoclasts are multinucleated cells and have specific enzyme activity, such as ‘tartrate-resistant acid phosphatase (TRAP)’. Therefore, Osteoclast formation was determined by counting the number of TRAP-positive multinucleated cells (TRAP(+) MNCs).
(§5) After culture, the cells were fixed with 10% neutral buffered formalin for 30 min at 4° C., washed twice in distilled water and stained for TRAP activity by incubating with substrate. The number of TRAP(+)MNC with more than 2 nuclei was counted under photomicroscope.
(§6) Results were expressed as mean number of TRAP(+)MNC±SD of All experiments were done at least twice. Statistical analysis was performed for each experiment by student t-test.

rabbit osteoclasts = assay: TRAP(+) MNC formation in isolated rabbit osteoclast cultures, single treatment without LTB4 (Example 6); assay type: cell-based; conditions: for number of TRAP(+) MNCs / osteoclast formation: 1000 nM, single treatment without LTB4, dentine slices, 48 hrs (FIG. 3-8)
Procedure: as §1, §2
After 24 hr in culture, the medium was replaced with fresh medium containing control, LTB4 receptor antagonists (1000 nM), DW1350 (10, 100 and 1000 nM) or LTB4 (100 nM) and the cultures were continued for an additional 48 hrs.
as §3, §4, §5, §6

LTB4 receptor = LTB4 receptor (Homo sapiens, UniProt Q15722); conditions: cited from earlier work
Chain of LTB4 receptor (Q15722 whole entry): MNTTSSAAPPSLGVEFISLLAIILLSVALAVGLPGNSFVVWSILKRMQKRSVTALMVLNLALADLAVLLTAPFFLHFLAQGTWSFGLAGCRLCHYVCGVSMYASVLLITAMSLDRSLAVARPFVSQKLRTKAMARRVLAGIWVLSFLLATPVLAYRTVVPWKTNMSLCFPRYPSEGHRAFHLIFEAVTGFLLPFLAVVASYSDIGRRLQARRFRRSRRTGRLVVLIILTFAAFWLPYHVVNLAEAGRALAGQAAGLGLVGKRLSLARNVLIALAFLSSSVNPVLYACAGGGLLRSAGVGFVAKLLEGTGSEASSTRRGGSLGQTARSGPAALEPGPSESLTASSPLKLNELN

[2] = 1000 nM in the presence of 100 nM LTB4 (FIGS. 6˜8), regimen not separated

Q: Which LTB4-stimulated osteoclast formation [1, 2] does the source give for `COc1ccc(/C=C/CCCCOc2ccc(C(=O)c3cccc(C(=O)O)c3)cc2CCC(=O)O)cc1` [LY223982] here?
A: significantly abolished LTB4-stimulated osteoclast formation

Q: And the “number of TRAP(+) MNCs / osteoclast formation” value (rabbit osteoclasts)?
A: did not change the number of osteoclasts

Q: What about the IC50 (LTB4 receptor) of the same molecule?
A: 13 nM

Q: Which results are given for `CCCc1c(OCCCOc2cc(O)c(-c3ccc(F)cc3)cc2CC)cccc1Oc1ccccc1C(=O)O` [LY293111]?
A: LTB4-stimulated osteoclast formation [1, 2]: significantly abolished LTB4-stimulated osteoclast formation; number of TRAP(+) MNCs / osteoclast formation (rabbit osteoclasts): did not change the number of osteoclasts; Ki (LTB4 receptor): 25 nM

Q: Which results are given for `CCc1cc(-c2ccc(F)cc2)c(O)cc1OCCCOc1ccc2c(=O)c3cc(C(=O)O)ccc3oc2c1CCC(=O)O` [LY292728]?
A: LTB4-stimulated osteoclast formation ([1]; pre-treatment 18 hrs, then 1000 nM compound + 100 nM LTB4 for 48 hrs, dentin slices): appeared to suppress the formation of osteoclasts; LTB4-stimulated osteoclast formation ([1]; simultaneous treatment: 1000 nM compound + 100 nM LTB4, 48 hrs, dentin slices): significantly abolished osteoclast formation increased by LTB4; number of TRAP(+) MNCs / osteoclast formation (rabbit osteoclasts): no significant effect on osteoclast formation compared to the control culture; number of TRAP(+) MNCs (rabbit osteoclasts; 10˜1000 nM, 48 hours, tissue culture dish, single treatment (FIG. 1, 2)): no significant effect on the number of osteoclasts; Ki (LTB4 receptor): 0.5 nM

Q: For `O=C(O)/C=C/c1nc(CSc2c(Cl)cccc2Cl)ccc1OCCc1ccccc1` [SB209247], which LTB4-stimulated osteoclast formation [1, 2] is on record?
A: significantly abolished LTB4-stimulated osteoclast formation

Q: And the “number of TRAP(+) MNCs / osteoclast formation” value (rabbit osteoclasts)?
A: did not change the number of osteoclasts

Source: US8242152B2, “Use of 4-[(4-thiazolyl)phenoxy]alkoxy-benzamidine derivatives for the prophylaxis and treatment of osteoporosis” (Dong Wha Pharmaceutical Co., Ltd., priority 2001, dated 2012)
